Results reported in the NIST ThermoML archive (doi:10.1016/j.fluid.2006.06.013).
Numbers after ± are expanded uncertainties.

Columns and labels:
[1] = for vapor or sublimation pressure: Liquid
[2] = refractive index (Na D-line) (dimensionless); conditions: 293.2 K; 101.33 kPa; Liquid; Standard Abbe refractometry

| Normal melting temperature ([1]; Crystal, visual observation) [°C] | Structure (SMILES) | vapor or sublimation pressure ([1]; 417.59 K) [kPa] | vapor or sublimation pressure ([1]; 425.4 K) [kPa] | vapor or sublimation pressure ([1]; 435.12 K) [kPa] | vapor or sublimation pressure ([1]; 444.5 K) [kPa] | vapor or sublimation pressure ([1]; 454.9 K) [kPa] | vapor or sublimation pressure ([1]; 466.01 K) [kPa] | vapor or sublimation pressure ([1]; 475.82 K) [kPa] | vapor or sublimation pressure ([1]; 486.11 K) [kPa] | vapor or sublimation pressure ([1]; 496.11 K) [kPa] | vapor or sublimation pressure ([1]; 506.87 K) [kPa] | vapor or sublimation pressure ([1]; 516.84 K) [kPa] | vapor or sublimation pressure ([1]; 525.54 K) [kPa] | refractive index [2] |
| --- | --- | --- | --- | --- | --- | --- | --- | --- | --- | --- | --- | --- | --- | --- |
| – | COC(=O)c1ccccc1C(=O)OC [dimethyl 1,2-benzenedicarboxylate] | 0.934 ± 0.12 | 1.466 ± 0.13 | 2.21 ± 0.13 | 3.356 ± 0.13 | 5.164 ± 0.13 | 7.823 ± 0.14 | 11.13 ± 0.14 | 15.42 ± 0.15 | 20.93 ± 0.15 | 28.7 ± 0.17 | 38.16 ± 0.18 | 48.71 ± 0.2 | 1.516 ± 0.001 |
| 52.5 ± 0.5 | O=C1C=CC(=O)O1 [maleic anhydride] | – | – | – | – | – | – | – | – | – | – | – | – | – |
